Results: patent US20240002344A1, “COMPOUNDS, COMPOSITIONS AND METHODS FOR HISTONE LYSINE DEMETHYLASE INHIBITION” (FibroGen, Inc., priority 2020, published 2024)

Experiments:
[1] = target: T1, recombinant human KDM5B (Homo sapiens, UniProt Q9UGL1); experiment: 14CO2 capture enzymatic assay (decarboxylation of [1-14C] αKG), KDM5B; format: biochemical; details: 10 μM [1-14C] αKG, 90 μM non-labeled αKG, 50 μM peptide substrate, 37° C., 1 hour, final 1% DMSO
T1 sequence (Q9UGL1 374-755 limits assumed): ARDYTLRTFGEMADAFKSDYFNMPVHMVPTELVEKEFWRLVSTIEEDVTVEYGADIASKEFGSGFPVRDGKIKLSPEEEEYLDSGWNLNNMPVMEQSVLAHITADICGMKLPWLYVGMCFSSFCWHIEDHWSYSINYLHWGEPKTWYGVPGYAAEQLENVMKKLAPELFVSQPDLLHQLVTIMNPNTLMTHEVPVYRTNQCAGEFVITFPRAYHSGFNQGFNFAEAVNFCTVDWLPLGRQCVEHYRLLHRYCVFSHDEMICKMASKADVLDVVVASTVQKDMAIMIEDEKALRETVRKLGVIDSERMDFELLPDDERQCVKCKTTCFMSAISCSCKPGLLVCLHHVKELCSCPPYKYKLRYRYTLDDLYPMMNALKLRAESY
Summary of the method: (§1)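 Truncated recombinant human KDM5B (H3K4me3 peptide) or KDM4A (H3K9me3 peptide), 50 μM peptide, with 10 μM [1-14C]αKG plus 90 μM unlabeled αKG, 10 μM Fe(SO4), 2 mM ascorbate in pH 7.4 HEPES, 1 h at 37 °C, 1% DMSO. Released 14CO2 trapped on Ba(OH)2 filter; IC50 by non-linear fit.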

[2] = target: T2, recombinant human KDM4A (Homo sapiens, UniProt O75164); experiment: 14CO2 capture enzymatic assay (decarboxylation of [1-14C] αKG), KDM4A; format: biochemical; details: 10 μM [1-14C] αKG, 90 μM non-labeled αKG, 50 μM peptide substrate, 37° C., 1 hour, final 1% DMSO
T2 construct: made in house
T2 sequence (O75164 1-359 limits assumed): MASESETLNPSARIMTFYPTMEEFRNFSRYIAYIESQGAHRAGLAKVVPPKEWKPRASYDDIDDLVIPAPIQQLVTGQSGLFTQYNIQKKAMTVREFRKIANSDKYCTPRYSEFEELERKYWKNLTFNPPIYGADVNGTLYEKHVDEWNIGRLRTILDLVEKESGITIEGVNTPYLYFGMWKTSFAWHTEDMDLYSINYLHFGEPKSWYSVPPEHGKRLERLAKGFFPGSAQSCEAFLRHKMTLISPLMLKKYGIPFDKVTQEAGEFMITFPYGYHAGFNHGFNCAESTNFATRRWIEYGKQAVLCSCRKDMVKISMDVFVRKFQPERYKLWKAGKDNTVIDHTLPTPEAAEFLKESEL
Summary of the method: as §1

SMILES	IC50 [1]	IC50 [2]
Cn1cc(-c2cc(C#N)c(O)c(C(=O)CCC(=O)O)n2)cn1 [Example 16, 4-[4-Cyano-3-hydroxy-6-(1-methyl-1H-pyrazol-4-yl)-pyridin-2-yl]-4-oxo-butyric acid]	210 nM	> 40000 nM
Cc1cccc(Cc2cc(C#N)c(O)c(C(=O)CCC(=O)O)n2)c1 [Example 37, 4-[4-Cyano-3-hydroxy-6-(3-methyl-benzyl)-pyridin-2-yl]-4-oxo-butyric acid]	60 nM	> 40000 nM
N#Cc1cc(Cc2cccc(C(F)(F)F)c2)nc(C(=O)CCC(=O)O)c1O [Example 29, 4-[4-Cyano-3-hydroxy-6-(3-trifluoromethyl-benzyl)-pyridin-2-yl]-4-oxo-butyric acid]	460 nM	> 40000 nM
N#Cc1cc(Oc2ccccc2Cl)cc(C(=O)CCC(=O)O)c1O [Example 136, 4-[5-(2-Chloro-phenoxy)-3-cyano-2-hydroxy-phenyl]-4-oxo-butyric acid]	370 nM	> 40000 nM
Cc1cc(C)c(Cc2cc(C#N)c(O)c(C(=O)CCC(=O)O)n2)c(C)c1 [Example 124, 4-[4-Cyano-3-hydroxy-6-(2,4,6-trimethyl-benzyl)-pyridin-2-yl]-4-oxo-butyric acid]	160 nM	> 40000 nM
N#Cc1cc(CC2CCCCC2)nc(C(=O)CCC(=O)O)c1O [Example 33, 4-(4-Cyano-6-cyclohexylmethyl-3-hydroxy-pyridin-2-yl)-4-oxo-butyric acid]	420 nM	> 40000 nM
N#Cc1cc(Cc2cccc(OC(F)(F)F)c2)nc(C(=O)CCC(=O)O)c1O [Example 48, 4-[4-Cyano-3-hydroxy-6-(3-trifluoromethoxy-benzyl)-pyridin-2-yl]-4-oxo-butyric acid]	310 nM	> 40000 nM
Cc1cc(Cl)cc(C)c1Cc1cc(C#N)c(O)c(C(=O)CCC(=O)O)n1 [Example 152, 4-[4-Cyano-6-(4-chloro-2,6-dimethyl-benzyl)-3-hydroxy-pyridin-2-yl]-4-oxo-butyric acid]	450 nM	9700 nM
N#Cc1cc(-c2ccccc2Cl)cc(C(=O)CCC(=O)O)c1O [Example 119, 4-(2′-Chloro-5-cyano-4-hydroxy-biphenyl-3-yl)-4-oxo-butyric acid]	280 nM	> 40000 nM
N#Cc1cc(Cc2cccc(-c3ccccc3)c2)nc(C(=O)CCC(=O)O)c1O [Example 51, 4-(6-Biphenyl-3-ylmethyl-4-cyano-3-hydroxy-pyridin-2-yl)-4-oxo-butyric acid]	200 nM	> 40000 nM
N#Cc1cc(Cc2c(F)cc(F)cc2F)nc(C(=O)CCC(=O)O)c1O [Example 55, 4-[4-Cyano-3-hydroxy-6-(2,4,6-trifluoro-benzyl)-pyridin-2-yl]-4-oxo-butyric acid]	220 nM	34000 nM

Further lines, results first:

IC50 [1]	IC50 [2]	SMILES
230 nM	3500 nM	O=C(O)CCC(=O)c1nc(C(F)(F)F)cc(C(F)(F)F)c1O [Example 4, 4-(3-Hydroxy-4,6-bis-trifluoromethyl-pyridin-2-yl)-4-oxo-butyric acid]
170 nM	> 40000 nM	Cc1ccc(Cl)cc1-c1cc(C#N)c(O)c(C(=O)CCC(=O)O)n1 [Example 91, 4-[6-(5-Chloro-2-methyl-phenyl)-4-cyano-3-hydroxy-pyridin-2-yl]-4-oxo-butyric acid]
280 nM	> 40000 nM	N#Cc1cc(Cc2ccccc2)cc(C(=O)CCC(=O)O)c1O [Example 117, 4-(5-Benzyl-3-cyano-2-hydroxy-phenyl)-4-oxo-butyric acid]
590 nM	> 40000 nM	N#Cc1cc(-c2ccccn2)nc(C(=O)CCC(=O)O)c1O [Example 11, 4-(4-Cyano-5-hydroxy-[2,2′]bipyridinyl-6-yl)-4-oxo-butyric acid]
1400 nM	> 40000 nM	N#Cc1nc(-c2ccccc2)cc(C(=O)CCC(=O)O)c1O [Example 157, 4-(2-Cyano-3-hydroxy-6-phenyl-pyridin-4-yl)-4-oxo-butyric acid]
180 nM	≥ 40000 nM	N#Cc1cc(-c2ccc(Cl)cc2)nc(C(=O)CCC(=O)O)c1O [Example 22, 4-[6-(4-Chloro-phenyl)-4-cyano-3-hydroxy-pyridin-2-yl]-4-oxo-butyric acid]
